Laboratory results as given in patent US11066630B2, “Device and method for analysis of tissue constructs” (The Johns Hopkins University, priority 2015, dated 2021).

What was measured:
ASM cells in lung-chip = assay: Cell rheology measurements using the lung-chip platform (frequency-domain OMTC); assay type: cell-based, human; settings: frequency-domain OMTC on lung-chip
Excerpt: (§1) Magnetic twisting cytometry with optical detection was used to quantitatively assess dynamic changes in cell stiffness as an indicator of single-cell contraction or relaxation of HASM cells, as previously described. In brief, ferrimagnetic microbeads (4.5 μm in diameter) coated with synthetic Arg-Gly-Asp (RGD) containing peptide (American Peptide Company) bound to the cytoskeleton through cell surface integrin receptors were magnetized horizontally. Subsequently, a vertically aligned homogeneous magnetic field varying sinusoidally in time applied an oscillatory torque, leading to both a rotation and a pivoting displacement of the bead (FIG. 18B). Measurements were performed at a single frequency of 0.75 Hz or oscillatory frequencies between 10^−1 and 10^3 Hz for cell rheology measurements (FIG. 21). Lateral bead displacements in response to the resulting oscillatory torque were detected optically (in spatial resolution of ˜5 nm), and the ratio of specific torque to bead displacement was computed as the cell stiffness in units of Pascals (Pa) per nanometer. For drug-induced single-cell contraction or relaxation, changes in HASM stiffness were measured in real-time for the duration of 300 seconds. For each individual cell, the baseline stiffness was measured for the first 60 seconds, and after drug addition, the stiffness was measured continuously for the next 240 seconds.

[1] = test system: primary ASM cells from asthmatic and non-asthmatic donors; assay: HASM stiffness measurements: drug-induced single-cell contraction or relaxation, asthmatic vs non-asthmatic ASM cells; assay type: cell-based, human
Method: (§2) Primary human epithelial and smooth muscle cells were harvested from the proximal airways (first through third order bronchi) of donor lungs unsuitable for transplantation (Table I) in accordance with the Institutional Review Boards at the University of Pennsylvania. Primary normal human bronchial epithelial (NHBE) cells were grown in collagen-coated flasks (GIBCO) using serum-free BEGM Bronchial Epithelial Cell Growth Medium™ with BulletKit™ Supplements (Lonza) and subsequently trypsinized and seeded onto porous polycarbonate membranes (either inside microfluidic devices or on transwell inserts) at 100,000 cells/cm^2. The polycarbonate membranes were coated with collagen type I (30 μg/ml; GIBCO) at 37° C. for 18 h before cell seeding. After NHBE cells reached confluence (within 3-5 days), the apical medium was removed and the basal medium was replaced with differentiation medium (PneumaCult-ALI™ Medium and Supplements, StemCell Technologies). The NHBE cells were maintained at the ALI for 2-3 weeks, until they differentiated into a pseudostratified layer. Excess mucus on the air side was washed away with warm PBS weekly. After NHBE differentiation in the microfluidic chips, primary HASM cells were seeded into the bottom compartment. Approximately 18 h before the live-cell micromechanical experiments using MTC, the culture medium of HASM cells was changed to serum-free minimal media (1:1 vol/vol mixture of DMEM Dulbecco's modified Eagle's medium and Ham's F-12 medium, supplemented with insulin […]), and cells were maintained at 37° C. in humidified air containing 5% CO2. The overnight media was then washed and replaced with fresh minimal media before the experiments. This minimal media procedure was applied to NHBE cells as well before compressive-stress application. For experiments involving Celecoxib or Verteporfin (Sigma Aldrich), NHBE cells were pre-treated with the drugs before the second washing step, as the presence of Celecoxib in the infranatant affected HASM mechanics (FIGS. 19A-B), and Verteporfin in the infranatant would have phototoxic effects on HASM cells during the live-cell micromechanical measurements. Since Verteporfin is a photosensitizer, treatment of NHBE cells was always performed in the dark.
as §1, with “Subsequently, a vertically aligned homogeneous magnetic field varying sinusoidally in time applied an oscillatory torque, leading to both a rotation and a pivoting displacement of the bead (FIG. 18B). Measurements were performed at a single frequency of 0.75 Hz or oscillatory frequencies between 10^−1 and 10^3 Hz for cell rheology measurements (FIG. 21).” left out

[2] = test system: ASM cells in lung-chip co-culture with airway epithelial cells; assay: Lung-chip: ASM contraction after compressive stress on the epithelial layer (OMTC); assay type: cell-based, human; settings: after 30 cmH2O compressive stress; 10 μM methacholine, followed by 1 μM PGE2
Method: The upper and lower layer of the microfluidic device were fabricated using standard soft lithography techniques by casting a flexible and optically transparent polydimethylsiloxane (PDMS) polymer on a mold and cross-linking at 80° C. for 2 hours. The mold was fabricated using optical lithography with an epoxy-based negative photoresist (SU8) that yields thick and robust structures. The two PDMS layers each had compartments with 5 mm width, 20 mm length, and 300 μm height, and around 100 support pillars with 200 μm diameter distributed across the compartments. The two compartments were separated by an optically-clear polycarbonate membrane (Sterlitech) with 5 μm diameter holes, allowing cells on both sides of the membranes to chemically interact. To construct the complete chip, first a PDMS layer and the polycarbonate membrane were exposed to an oxygen plasma (30 W, 700 mTorr, 30 sec) to chemically activate their surfaces. Immediately after the plasma treatment, the PDMS surface was silanized using 5 μl of an APTES solution (1% 3-aminopropyltriethoxysilane in water) and the polycarbonate membrane was allowed to bond to it. After 2 hours of bonding at room temperature, the process was repeated to bond the second PDMS compartment to the other side of the polycarbonate membrane. […]

[3] = test system: primary human airway epithelial cells (NHBE); readout on HASM cells; assay: ASM cell contraction (OMTC stiffness) in response to infranatant from drug-treated epithelial cells exposed to compressive stress; assay type: cell-based; settings: epithelial cells treated with drug; 30 cmH2O, 0h vs 3h pressure
Method: (§3) Primary human epithelial and smooth muscle cells were harvested from the proximal airways (first through third order bronchi) of donor lungs unsuitable for transplantation (Table I) in accordance with the Institutional Review Boards at the University of Pennsylvania. Primary normal human bronchial epithelial (NHBE) cells were grown in collagen-coated flasks (GIBCO) using serum-free BEGM Bronchial Epithelial Cell Growth Medium™ with BulletKit™ Supplements (Lonza) and subsequently trypsinized and seeded onto porous polycarbonate membranes (either inside microfluidic devices or on transwell inserts) at 100,000 cells/cm^2. The polycarbonate membranes were coated with collagen type I (30 μg/ml; GIBCO) at 37° C. for 18 h before cell seeding. After NHBE cells reached confluence (within 3-5 days), the apical medium was removed and the basal medium was replaced with differentiation medium (PneumaCult-ALI™ Medium and Supplements, StemCell Technologies). The NHBE cells were maintained at the ALI for 2-3 weeks, until they differentiated into a pseudostratified layer. Excess mucus on the air side was washed away with warm PBS weekly. […]
Magnetic twisting cytometry with optical detection was used to quantitatively assess dynamic changes in cell stiffness as an indicator of single-cell contraction or relaxation of HASM cells, as previously described. […]

airway epithelial cells = assay: Gene expression analysis (TaqMan real-time PCR) in airway epithelial cells; assay type: cell-based, human
Method: as §2, with “For experiments involving Celecoxib or Verteporfin (Sigma Aldrich), NHBE cells were pre-treated with the drugs before the second washing step, as the presence of Celecoxib in the infranatant affected HASM mechanics (FIGS. 19A-B), and Verteporfin in the infranatant would have phototoxic effects on HASM cells during the live-cell micromechanical measurements. Since Verteporfin is a photosensitizer, treatment of NHBE cells was always performed in the dark.” left out

NHBE cells = assay: PGE2 content of epithelial infranatant (EIA kit); assay type: cell-based, human; settings: epithelial cells with or without compressive stress
Method: as §3, with “seeding.” for “seeding. After NHBE cells reached confluence (within 3-5 days), the apical medium was removed and the basal medium was replaced with differentiation medium (PneumaCult-ALI™ Medium and Supplements, StemCell Technologies). The NHBE cells were maintained at the ALI for 2-3 weeks, until they differentiated into a pseudostratified layer. Excess mucus on the air side was washed away with warm PBS weekly.”
Media from the basal compartments (infranatant) were collected from control samples or after application of 30 cmH2O compressive stress on NHBE cells, and were assayed for the presence of PGE2 using a commercial EIA kit (DetectX™ Prostaglandin E2 High Sensitivity Immunoassay Kit, Arbor Assays, Ann Arbor, Mich.) following the manufacturer's instructions. The absorbance in the samples was measured at 450 nm with a microplate reader (Molecular Devices, Sunnyvale, Calif.). […]

Q: Which results are given for `NCCc1c[nH]cn1` [Histamine, histamine]?
A: ASM cell stiffness (ASM cells in lung-chip): increases ASM cell stiffness; Stress relaxation of ASM cells (ASM cells in lung-chip): more difficult (slower) for the cells to relax stress

Q: With `CCCCC[C@H](O)/C=C/[C@H]1[C@H](O)CC(=O)[C@@H]1C/C=C\CCCC(=O)O` [PGE2] as the compound, how does the “Stiffness change (contraction or relaxation), asthmatic compared with non-asthmatic ASM cells” value (shortened to “Stiffness change … with non-asthmatic ASM cells”) [1] read?
A: asthmatic ASM cells relaxed more

Q: And the “ASM response to agonist” value ([1]; different doses and different patient samples)?
A: consistently caused ASM relaxation

Q: And the “ASM contraction in lung-chip after pressure turned off” value [2]?
A: did not lead to relaxation

Q: Which “Stiffness change … with non-asthmatic ASM cells” value [1] does the source give for `CCCCC[C@H](O)/C=C/[C@@H]1[C@@H](C/C=C\CCCC(=O)O)[C@@H](O)C[C@H]1O` [PGF2α] here?
A: did not yield a difference in response between asthmatic and non-asthmatic ASM cells

Q: How did the ASM cell stiffness (ASM cells in lung-chip) turn out when `C=C1[C@@H](C)[C@H]2[C@H](Cc3ccccc3)NC(=O)[C@]23[C@H](OC(C)=O)/C=C/[C@@](C)(O)C(=O)[C@@H](C)C/C=C/[C@H]3[C@@H]1O` [cytochalasin D] was run?
A: reduces ASM cell stiffness

Q: What about the “Stress relaxation of ASM cells” value (ASM cells in lung-chip) of the same compound?
A: easier (faster) for the cells to relax stress

Q: How did the “Stiffness change … with non-asthmatic ASM cells” value [1] turn out when `CC(C)NCC(O)c1ccc(O)c(O)c1` (stereo not shown) [isoproterenol] was run?
A: less relaxation in asthmatic ASM cells

Q: What does the source list for `CC(=O)OC(C)C[N+](C)(C)C` (stereo not shown) [methacholine]?
A: Stiffness change (contraction or relaxation), asthmatic compared with non-asthmatic ASM cells [1]: stronger contraction in asthmatic ASM cells; ASM contraction in lung-chip after pressure turned off [2]: only slightly increased ASM contraction

Q: What does the source list for Verteporfin?
A: Effect of compressive stress on epithelial cells, read as ASM cell contraction in response to 0h and 3h-pressure epithelial samples [3]: abrogated the effects of compressive stress; COX2 (PTGS2) mRNA expression (airway epithelial cells; airway epithelial cells): downregulated COX2; Regulation of COX1 and COX2 mRNA by compressive stress (airway epithelial cells; airway epithelial cells, compressive stress): prohibited the downregulation of COX1 and upregulation of COX2 by compressive stress; Upregulation of CTGF mRNA by compressive stress (airway epithelial cells; epithelial cells): this upregulation was abrogated; PGE2 content of the infranatants (NHBE cells): less PGE2 production and suppression of the effects of compressive stress
